Data on four compounds can be found in patent publication US8795746B2, “Therapeutic use of mucin glycans” (The Board of Trustees of the Leland Stanford Junior …, priority 2011, dated 2014).

The subject of assay [1] is Bif. infantis ATCC15697. As to the kind of experiment: In vitro growth of Bif. infantis in minimal medium with the glycan as carbon source. The class given is cell-based, Bifidobacterium longum subsp. infantis. Conditions: minimal medium (modified MRS without glucose) with the glycan. How it is done: We next queried whether the redundancy in machinery employed for mucin and HMO consumption in Bt is also found in Bifidobacterium species that are well-adapted to HMO use. Therefore, we grew a strain known to be proficient at HMO-use, Bif. infantis ATCC15697 in MM-O-PMG.
(§1) Bacterial Strains and Culture conditions. Type strains for Bacteroides species were used unless otherwise indicated. Bacteroides species were grown in tryptone-yeast extract-glucose (TYG) medium and minimal medium (MM) as described previously. Bif. infantis was grown in Man-Rogosa-Sharpe (MRS) medium (Oxoid LTD., Basingstoke, Hampshire, England) and minima medium consisting of modified MRS, which lacks glucose. […] OD600 was monitored using a BioTek PowerWave 340 plate reader (BioTek, Winoosky, Vt., United States) every 30 min, at 37° C. anaerobically (6% H2, 20% CO2, 74% N2).
B. thetaiotaomicron and Bifidobacterium infantis Differentially Consume the Structurally Similar Mucin Glycans and HMO. […] We grew an HMO-consuming Bifidobacterium strain that is abundant in the microbiota of breast-fed infants, Bi, in purified porcine mucin glycans (MM-O-PMG) to elucidate its competence in mucin consumption. […]
Bacterial Strains and Culture Conditions. […] OD600 was monitored using a BioTek PowerWave 340 plate reader (BioTek, Winooski, Vt.) every 30 min, at 37_C anaerobically (6% H2, 20% CO2, 74% N2).

The subject of assay [2] is Bt and Bi fecal community. As to the kind of experiment: Competitive colonization of gnotobiotic mice biassociated with Bt and B. infantis, LNnT in the water. In kind it is in vivo, germ-free Swiss-Webster mice. On the procedure:
Two groups of 6-week-old germ-free mice were fed a polysaccharide-deficient diet, forcing a reliance on host mucus glycans for carbon and energy. One group received LNnT supplementation in the water (1% w/v; average consumption of 75 mg of LNnT daily), the control group received plain water.
After one day of LNnT feeding, both groups were colonized with equivalent quantities of Bt and Bi (10^8 CFU each). At day 6 post-inoculation, the group receiving LNnT was switched to normal water; at day 15 post-inoculation, LNnT was readministered for 3 additional days. Total bacterial colonization density was determined by assessing the CFUs in feces over the course of the 18 day experiment. […] LNnT supplementation was withdrawn on day 6 and colonization density was determined on days 7, 8, 9, 12, and 15 post colonization (1, 2, 3, 6, and 9 days after removing LNnT from the water). […] At day 3 post withdrawal of LNnT, Bi representation was 3.9±0.2% compared to 41.5±6.4% just prior to withdrawal (p=0.006, day 6 versus day 9, n=4 mice). LNnT was reintroduced into the water on day 15, and bacterial colonization was monitored at days 16, 17, and 18 post colonization. Two days after LNnT reintroduction, Bi expanded from 0.5±0.5% at day 15 to 49.9±2% at day 17 (p=0.012, day 15 versus day 17, n=4 mice). By day 18, Bi represented 25.9±9.6% of the community in LNnT-fed mice, compared to 1.9±1.5% in the control group (p=0.014, n=4 mice) (FIG. 16C).
Competitive Colonization of Gnotobiotic Mouse. Germ-free Swiss-Webster mice were reared in gnotobiotic isolators and fed an autoclaved polysaccharide-deficient diet in accordance with A-PLAC, the Stanford IACUC. Mice were biassociated using oral gavage (10^8 CFU of each species). Subsequent community enumerations from mice were determined from freshly collected feces, by selective plating of serial dilutions in RCM agar and BHI-blood agar supplemented with gentamicin ([…]). Significant differences between sample groups were determined using Student's t test. Synthetic LNnT (Glycom A/S, Denmark) was purified by crystallization to a final purity of >99%. Characterization was performed using multiple methods, including NMR (1D and 2D) mass spectrometry, and HPLC.

The test system of assay [3] is Bacteroides thetaiotaomicron (Bt). Description: In vitro growth of Bt in minimal medium with the glycan as sole carbohydrate (OD600). In kind it is cell-based. Conditions: glycan 1.5% w/v as sole carbon source. How it is done:
The transcriptome was analyzed near the midpoints of the two logarithmic growth phases in MM-HMO (n=2 biological replicates/growth phase, four datasets total). As a baseline for comparison, we used previously reported in vitro datasets of Bt grown in MM-glucose. […] Within these combined 253 genes (132 were commonly up regulated in both phases), 137 genes had ≧5-fold change in expression when compared to MM-glucose (see Table S1 for complete list of genes).
as §1
Bacterial Strains and Culture Conditions. Type strains were used unless otherwise indicated. Bacteroides species were grown in tryptone-yeast extract-glucose (TYG) medium and minimal medium (MM). […] OD600 was monitored using a BioTek PowerWave 340 plate reader (BioTek, Winooski, Vt.) every 30 min, at 37_C anaerobically (6% H2, 20% CO2, 74% N2).

Assay [4] has as its system Bt. As to the kind of experiment: Sialic acid content determination in MM-HMO after Bt growth. The class given is cell-based, Bacteroides thetaiotaomicron. How it is done:
Twelve of the 21 HMO-specific Bf genes were distributed within two loci that are dedicated to sialic acid acquisition and catabolism (FIG. 16B). […] To confirm that Bf does in fact consume sialic acids from HMOs, sialic acid content in the MM-HMO after growth was measured before and after acid hydrolysis using derivatization with 1,2-diamino-4,5-methylenedioxybenzene followed by reverse phase HPLC.
(§2) Sialic Acid Content Determination. Culture supernatant was isolated after growth in MM-HMO and clarified by centrifugation and filtration. Sialic acid concentrations were determined by the Glycotechnology Core Facility UCSD (University of California, San Diego, San Diego, Calif.), using the […] DMB labeling kit protocol (Prozyme, San Leandro, Calif.).

Assay [5] deals with B. fragilis. As to the kind of experiment: Sialic acid content determination in MM-HMO after B. fragilis growth (DMB derivatization, RP-HPLC). In kind it is cell-based, Bacteroides fragilis. On the procedure:
Ten of the 21 genes in the HMO-specific B. fragilis response were distributed within two loci that are dedicated to sialic acid acquisition and catabolism (FIG. 6B).
Sialic acid content determination. B. fragilis culture supernatant was isolated after growth in MM-HMO and clarified by centrifugation and filtration. Sialic acid concentrations were determined by the Glycotechnology Core Facility UCSD (University of California, San Diego, Calif., United States). Briefly, sialic acids were released by acid hydrolysis at 80 C for 3 hours in 2M acetic acid, collected by ultra-filtration, and derivatized with DMB (1,2-diamino-4,5-methylenedioxybenzene). The resulting fluorescent sialic acids derivatives were analyzed by RP-HPLC with on-line fluorescence detection, and identification was based on standards run in parallel.
as §2

The subject of assay [6] is Bt VPI-5482 genes / PULs. As to the kind of experiment: Whole genome transcriptional profiling of Bt (GeneChip) relative to MM-glucose. To be noted: compared to MM-glucose. The class given is cell-based, Bacteroides thetaiotaomicron.
Protocol: We grew Bt in minimal medium (MM) containing HMO (1.5% w/v) as the sole carbohydrate to investigate if this strain consumes human milk glycans in vitro. […] Next, we defined the transcriptional response of Bt during HMO consumption using whole genome transcriptional profiling with a custom Bt VPI-5482 GeneChip that represent >98% of this organism's protein coding genes. The transcriptome was analyzed near the midpoints of the two logarithmic growth phases in MM-HMO (n=2 biological replicates/growth phase, four datasets total). As a baseline for comparison, we used previously reported in vitro datasets of Bt grown in MM-glucose.
We wished to identify which portion of the observed Bt transcriptional response in MM-HMO was due to the complex oligosaccharides versus simple core sugars, lactose and galactose. Therefore, we performed transcriptional profiling of Bt grown in MM-galactose and MM-lactose (n=2 mid-log phase datasets for each of these monophasic growths; see FIG. 8 for growth curves and sampling timepoints).
Whole Genome Transcriptional Profiling. […] GeneChip data from bacteria growth in different carbon sources were normalized using R program by RMA-MS and statistical significance for differential gene expression was determined using SAM [45]. […]

Where only a bound is given, the exact number is not on record here.

Take `CC(=O)N[C@H]1[C@H](O[C@H]2[C@@H](O)[C@@H](CO)O[C@@H](O[C@H]3[C@H](O)[C@@H](O)C(O)O[C@@H]3CO)[C@@H]2O)O[C@H](CO)[C@@H](O[C@@H]2O[C@H](CO)[C@H](O)[C@H](O)[C@H]2O)[C@@H]1O` (mixture of isomers) [LNnT, lacto-N-neotetraose]: the “growth of Bif. infantis” value in assay [1] was “grew efficiently reaching a high OD”. The “time for Bi to drop to levels similar to controls after removal of LNnT” value in assay [2] (LNnT withdrawn on day 6) is no more than 2 days. In addition, the “Bi relative to Bt in fecal community” value in assay [2] (day 6, LNnT 1% w/v in water, polysaccharide-deficient diet) was found to be 41.5±6.4%. In addition, the Bi representation in assay [2] (day 9, day 3 post withdrawal of LNnT) turned out to be 3.9±0.2%; in assay [2] (day 15, before LNnT reintroduction) it was 0.5±0.5%; in assay [2] (day 17, two days after LNnT reintroduction) it was 49.9±2%. Also, the “Bi share of the community” value in assay [2] (day 18, LNnT-fed mice) worked out at 25.9±9.6%. Besides, in assay [3], the “growth of Bt” value is given as “did not”.
For `CC(=O)N[C@H]1[C@H]([C@H](O)[C@H](O)CO)OC(O)(C(=O)O)C[C@@H]1O` (stereo partly drawn) [Neu5Ac, N-acetylneuraminic acid], the “Neu5Ac use by Bt” value in assay [4] is recorded as “unable to catabolize it”. For the same compound, in assay [5], the “Neu5Ac content after B. fragilis growth” value is “completely depleted”.
`O=C[C@H](O)[C@@H](O)[C@@H](O)[C@H](O)CO` [galactose]: in assay [6], the “number of Bt genes up regulated at least 5-fold” value was 40 genes.
As to `OC[C@H]1O[C@@H](O[C@H]2[C@H](O)[C@@H](O)C(O)O[C@@H]2CO)[C@H](O)[C@@H](O)[C@H]1O` (stereo partly drawn) [lactose], the “number of Bt genes up regulated at least 5-fold” value in assay [6] turned out to be 34 genes.
